Active and inactive are the calls of the source. No cut-off for these calls is given here.
Key:
[1] = biological target: Alpha-synuclein (Homo sapiens) (UniProt P37840); experiment: Inhibition of alpha alpha-synuclein (unknown origin) fibril aggregation assessed as reduction in TH-T fluorescent signal at 100 uM measured after 5 to 40 hrs by ThT fluorescence assay; conditions: time 5-40 hrs
[2] = biological target: Alpha-synuclein (Homo sapiens) (UniProt P37840); experiment: Inhibition of alpha alpha-synuclein (unknown origin) fibril aggregation assessed as reduction in TH-T fluorescent signal at 100 uM measured after 5 to 40 hrs by ThT fluorescence assay relative to control; conditions: time 5-40 hrs

Row | SMILES | inhibition [1] | inhibition [2] [%]
1 | O=[N+]([O-])c1cc(C(F)(F)F)cc([N+](=O)[O-])c1NCCCO | inactive | –
2 | O=C(COc1ccccc1)Nc1c([N+](=O)[O-])cc(C(F)(F)F)cc1[N+](=O)[O-] | inactive | –
3 | O=[N+]([O-])c1cc(C(F)(F)F)cc([N+](=O)[O-])c1N1CCN(CCO)CC1 | inactive | –
4 | Cn1nnnc1SCc1ccccc1[N+](=O)[O-] | inactive | –
5 | Cn1nnnc1SCc1ccc(C(F)(F)F)cc1 | inactive | –
6 | COc1cccc(Nc2c([N+](=O)[O-])cc(C(F)(F)F)cc2[N+](=O)[O-])c1 | inactive | –
7 | Cn1nnnc1Sc1c([N+](=O)[O-])cc(C(F)(F)F)cc1[N+](=O)[O-] | Active | –
8 | O=[N+]([O-])c1cc(C(F)(F)F)cc([N+](=O)[O-])c1NC1=NN(c2ccccc2)CC1 | inactive | –
9 | Cc1cc(C)c(Nc2c([N+](=O)[O-])cc(C(F)(F)F)cc2[N+](=O)[O-])c(C)c1 | inactive | –
10 | O=[N+]([O-])c1cc(C(F)(F)F)cc([N+](=O)[O-])c1Sc1c(Cl)c(Cl)nc(Cl)c1Cl | inactive | –
11 | O=[N+]([O-])c1cc(C(F)(F)F)cc([N+](=O)[O-])c1N1CCN(c2ncnc3ccccc23)CC1 | inactive | –
12 | O=[N+]([O-])c1cc([N+](=O)[O-])c(Nc2ccccc2)c(C(F)(F)F)c1 | inactive | –
13 | O=[N+]([O-])c1cc(C(F)(F)F)cc([N+](=O)[O-])c1Nc1ccc(F)cc1 | inactive | –
14 | Cc1cc(C)nc(Sc2c([N+](=O)[O-])cc(C(F)(F)F)cc2[N+](=O)[O-])n1 | inactive | –
15 | O=[N+]([O-])c1cc(C(F)(F)F)cc([N+](=O)[O-])c1F | – | 57
16 | Cc1cccc(N2CCC(Nc3c([N+](=O)[O-])cc(C(F)(F)F)cc3[N+](=O)[O-])=N2)c1 | inactive | –
17 | Cn1cnnc1SCc1ccc(C(F)(F)F)cc1 | inactive | –
18 | N#Cc1c(C(F)(F)F)c([N+](=O)[O-])c(-c2cccc([N+](=O)[O-])c2)[nH]c1=O | Active | –
19 | O=[N+]([O-])c1cc(C(F)(F)F)cc([N+](=O)[O-])c1Nc1cccc(O)c1 | – | 68
20 | O=C(O)CSCc1ccc(C(F)(F)F)cc1 | inactive | –

— ChEMBL document CHEMBL6127019, “Exploitation of the nitro- and/or 4-Trifluoromethyl-decorated phenyl fragment to develop small inhibitors of Alpha-Syn fibril aggregation” (Bioorg Med Chem Lett, 2024)
